Measurements published in PubChem BioAssay AID1963437 (Molecular Pharmacology Branch, DTP, NCI, 2024).

System: OVCAR-8 complex spheroid, growth inhibition
Assay: Anticancer human tumor OVCAR-8 cell line growth inhibition [Asc];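 further: spheroids exposed to agents for 7 days before readout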;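 on viability, T/C: percent viability relative to DMSO vehicle wells taken as 100%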
Conditions: for IC50: curve of first compound; for viability, T/C: stronger effect = lower value
How it was run: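 Tumor cells were grown as complex spheroids with human endothelial cells (HUVEC) and human mesenchymal stem cells as stroma. Agents were tested alone and in combination, in half-log steps down from the clinical Cmax, or from 10 microM where Cmax was unknown.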

IC50 (second compound 0.0316 µM): > 10 µM
IC50 (second compound 0.1 µM): > 10 µM
IC50 (second compound 0.316 µM): > 10 µM
IC50 (second compound 1 µM): > 10 µM
IC50 (second compound 3.16 µM): > 10 µM
IC50 (second compound 10 µM): > 10 µM
SMILES: O=C(c1cc(Cc2n[nH]c(=O)c3ccccc23)ccc1F)N1CCN(C(=O)C2CC2)CC1 + Cc1c(S(C)(=O)=O)c(-c2cc(F)cc(N3CCN(c4ccc(NS(=O)(=O)c5ccc(NC(CCN6CCC(C(=O)OCCCP(=O)(O)O)CC6)CSc6ccccc6)c(S(=O)(=O)C(F)(F)F)c5)cc4)CC3)c2)c(-c2ccc(Cl)cc2)n1C(C)C
viability, T/C (second compound 0.0316 µM, first compound 0.0316 µM): 95.1%
viability, T/C (second compound 0.0316 µM, first compound 0.1 µM): 97%
viability, T/C (second compound 0.0316 µM, first compound 0.316 µM): 88.2%
viability, T/C (second compound 0.0316 µM, first compound 1 µM): 102%
viability, T/C (second compound 0.0316 µM, first compound 3.16 µM): 137%
viability, T/C (second compound 0.0316 µM, first compound 10 µM): 114%
viability, T/C (second compound 0.1 µM, first compound 0.0316 µM): 100%
viability, T/C (second compound 0.1 µM, first compound 0.1 µM): 87.9%
viability, T/C (second compound 0.1 µM, first compound 0.316 µM): 92.5%
viability, T/C (second compound 0.1 µM, first compound 1 µM): 98.2%
viability, T/C (second compound 0.1 µM, first compound 3.16 µM): 115%
viability, T/C (second compound 0.1 µM, first compound 10 µM): 137%
viability, T/C (second compound 0.316 µM, first compound 0.0316 µM): 103%
viability, T/C (second compound 0.316 µM, first compound 0.1 µM): 101%
viability, T/C (second compound 0.316 µM, first compound 0.316 µM): 105%
viability, T/C (second compound 0.316 µM, first compound 1 µM): 110%
viability, T/C (second compound 0.316 µM, first compound 3.16 µM): 161%
viability, T/C (second compound 0.316 µM, first compound 10 µM): 130%
viability, T/C (second compound 1 µM, first compound 0.0316 µM): 132%
viability, T/C (second compound 1 µM, first compound 0.1 µM): 96.7%
viability, T/C (second compound 1 µM, first compound 0.316 µM): 120%
viability, T/C (second compound 1 µM, first compound 1 µM): 120%
viability, T/C (second compound 1 µM, first compound 3.16 µM): 152%
viability, T/C (second compound 1 µM, first compound 10 µM): 109%
viability, T/C (second compound 3.16 µM, first compound 0.0316 µM): 134%
viability, T/C (second compound 3.16 µM, first compound 0.1 µM): 106%
viability, T/C (second compound 3.16 µM, first compound 0.316 µM): 100%
viability, T/C (second compound 3.16 µM, first compound 1 µM): 104%
viability, T/C (second compound 3.16 µM, first compound 3.16 µM): 140%
viability, T/C (second compound 3.16 µM, first compound 10 µM): 107%
viability, T/C (second compound 10 µM, first compound 0.0316 µM): 125%
viability, T/C (second compound 10 µM, first compound 0.1 µM): 107%
viability, T/C (second compound 10 µM, first compound 0.316 µM): 112%
viability, T/C (second compound 10 µM, first compound 1 µM): 124%
viability, T/C (second compound 10 µM, first compound 3.16 µM): 159%
viability, T/C (second compound 10 µM, first compound 10 µM): 98.9%
